# Target: T1, ALK (Homo sapiens, UniProt Q9UM73)
# T1 construct: purchased Millipore
# Test: ALK kinase assay (HTRF_ALK)
# Assay type: biochemical
# Conditions: apparent Ki converted from IC50 by the Cheng-Prusoff relationship; ALK (Millipore), 50 μM ATP, 1 h at room temperature
# T1 sequence (Q9UM73 19-1620): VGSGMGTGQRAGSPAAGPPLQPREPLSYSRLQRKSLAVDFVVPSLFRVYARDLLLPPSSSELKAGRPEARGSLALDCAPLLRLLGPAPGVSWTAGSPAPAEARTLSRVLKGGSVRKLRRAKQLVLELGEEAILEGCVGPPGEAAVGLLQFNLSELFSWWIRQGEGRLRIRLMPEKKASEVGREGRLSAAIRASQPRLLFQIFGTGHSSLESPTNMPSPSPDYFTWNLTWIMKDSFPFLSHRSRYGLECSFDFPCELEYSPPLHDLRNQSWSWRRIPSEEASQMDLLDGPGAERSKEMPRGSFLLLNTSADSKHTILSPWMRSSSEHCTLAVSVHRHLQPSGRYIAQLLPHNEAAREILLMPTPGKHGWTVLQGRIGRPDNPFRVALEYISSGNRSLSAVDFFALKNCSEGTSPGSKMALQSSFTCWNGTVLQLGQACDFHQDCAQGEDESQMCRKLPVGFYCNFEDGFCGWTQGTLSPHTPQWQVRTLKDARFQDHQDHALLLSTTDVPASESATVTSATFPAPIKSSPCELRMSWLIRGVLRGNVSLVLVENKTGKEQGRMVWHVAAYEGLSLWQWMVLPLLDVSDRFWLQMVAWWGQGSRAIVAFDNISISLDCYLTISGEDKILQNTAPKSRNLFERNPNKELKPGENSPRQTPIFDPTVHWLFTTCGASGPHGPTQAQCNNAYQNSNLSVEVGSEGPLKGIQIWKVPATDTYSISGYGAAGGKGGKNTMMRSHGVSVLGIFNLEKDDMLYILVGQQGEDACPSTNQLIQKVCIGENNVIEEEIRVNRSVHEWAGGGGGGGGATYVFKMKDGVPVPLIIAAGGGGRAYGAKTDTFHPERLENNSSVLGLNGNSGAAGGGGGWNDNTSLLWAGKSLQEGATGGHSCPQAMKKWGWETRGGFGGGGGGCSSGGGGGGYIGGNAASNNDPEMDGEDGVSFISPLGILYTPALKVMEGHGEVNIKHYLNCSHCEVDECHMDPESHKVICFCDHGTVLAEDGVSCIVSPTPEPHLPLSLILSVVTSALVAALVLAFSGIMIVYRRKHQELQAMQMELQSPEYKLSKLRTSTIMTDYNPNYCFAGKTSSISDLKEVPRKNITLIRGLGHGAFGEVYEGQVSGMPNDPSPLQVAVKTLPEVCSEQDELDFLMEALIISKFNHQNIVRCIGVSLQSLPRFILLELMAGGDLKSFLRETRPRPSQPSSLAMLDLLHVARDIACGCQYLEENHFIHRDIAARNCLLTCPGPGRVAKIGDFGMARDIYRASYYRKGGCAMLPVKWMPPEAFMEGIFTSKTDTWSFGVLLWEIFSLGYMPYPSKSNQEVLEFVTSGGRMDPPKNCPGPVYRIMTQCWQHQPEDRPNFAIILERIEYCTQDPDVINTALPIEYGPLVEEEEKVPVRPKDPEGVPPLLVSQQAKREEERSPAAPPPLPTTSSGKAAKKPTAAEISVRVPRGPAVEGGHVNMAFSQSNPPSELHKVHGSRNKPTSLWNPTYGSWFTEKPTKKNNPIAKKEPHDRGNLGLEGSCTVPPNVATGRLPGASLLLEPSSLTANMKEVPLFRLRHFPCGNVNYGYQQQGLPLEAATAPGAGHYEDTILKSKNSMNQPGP
row,Ki,Compound
1,8 nM,"COc1cc(N2CCN(C)CC2)ccc1Nc1cc(Cc2c(Cl)cccc2Cl)nc2cc[nH]c(=O)c12 [Example 1, 2-(2,6-dichlorobenzyl)-4-{[2-methoxy-4-(4-methylpiperazin-1-yl)phenyl]amino}-1,6-naphthyridin-5 (6H)-one]"
2,4 nM,"COc1cc(N2CCNCC2)ccc1Nc1cc(Cc2c(Cl)cccc2Cl)nc2cc[nH]c(=O)c12 [Example 2, 2-(2,6-dichlorobenzyl)-4-{[2-methoxy-4-(piperazin-1-yl)phenyl]amino}-1,6-naphthyridin-5(6H)-one]"
3,72 nM,"O=c1[nH]ccc2nc(Cc3c(Cl)cccc3Cl)cc(Nc3ccc(N4CCNCC4)cc3)c12 [Example 3, 2-(2,6-dichlorobenzyl)-4-{[4-(piperazin-1-yl)phenyl]amino}-1,6-naphthyridin-5(6H)-one]"
4,64 nM,"COc1cc(N2CCN(C)CC2)ccc1Nc1nc(Cc2c(Cl)cccc2Cl)cc2cc[nH]c(=O)c12 [Example 4, 6-(2,6-dichlorobenzyl)-8-{[2-methoxy-4-(4-methylpiperazin-1-yl)phenyl]amino}-2,7-naphthyridin-1(2H)-one]"
5,7 nM,"COc1cc(N2CCN(C)CC2)ccc1Nc1nc(Cc2c(Cl)cccc2Cl)cc2nc[nH]c(=O)c12 [Example 5, 7-(2,6-dichlorobenzyl)-5-{[2-methoxy-4-(4-methylpiperazin-1-yl)phenyl]amino}pyrido[4,3-d]pyrimidin-4(3H)-one]"
6,6 nM,"COc1cc(N2CCNCC2)ccc1Nc1nc(Cc2c(Cl)cccc2Cl)cc2nc[nH]c(=O)c12 [Example 6, 7-(2,6-dichlorobenzyl)-5-{[2-methoxy-4-(piperazin-1-yl)phenyl]amino}pyrido[4,3-d]pyrimidin-4(3H)-one]"
7,10 nM,"O=c1[nH]cnc2cc(Cc3c(Cl)cccc3Cl)nc(Nc3ccc(N4CCNCC4)cc3)c12 [Example 7, 7-(2,6-dichlorobenzyl)-5-{[4-(piperazin-1-yl)phenyl]amino}pyrido[4,3-d]pyrimidin-4(3H)-one]"
8,3 nM,"COc1cc(N2CCNCC2)ccc1Nc1nc(Cc2c(Cl)cccc2Cl)cc2cc[nH]c(=O)c12 [Example 8, 6-(2,6-dichlorobenzyl)-8-{[2-methoxy-4-(piperazin-1-yl)phenyl]amino}-2,7-naphthyridin-1(2H)-one]"
9,14 nM,"O=c1[nH]ccc2cc(Cc3c(Cl)cccc3Cl)nc(Nc3ccc(N4CCNCC4)cc3)c12 [Example 9, 6-(2,6-dichlorobenzyl)-8-{[4-(piperazin-1-yl)phenyl]amino}-2,7-naphthyridin-1(2H)-one]"
10,180 nM,"COc1cc(N2CCC(N(C)C)CC2)ccc1Nc1nc(Cc2c(Cl)cccc2Cl)cc2cc[nH]c(=O)c12 [Example 10, 6-(2,6-dichlorobenzyl)-8-({4-[4-(dimethylamino)piperidin-1-yl]-2-methoxyphenyl}amino)-2,7-naphthyridin-1(2H)-one]"
11,70 nM,"COc1cc(N2CCNCC2)ccc1Nc1cc(Cc2c(Cl)cccc2Cl)nc2nc[nH]c(=O)c12 [Example 11, 7-(2,6-dichlorobenzyl)-5-{[2-methoxy-4-(piperazin-1-yl)phenyl]amino}pyrido[2,3-d]pyrimidin-4(3H)-one]"
12,13 nM,"COc1cc(N2CCNCC2)ccc1Nc1nc(Cc2c(Cl)cccc2Cl)nc2nc[nH]c(=O)c12 [Example 12, 7-(2,6-dichlorobenzyl)-5-{[2-methoxy-4-(piperazin-1-yl)phenyl]amino}pyrimido[4,5-d]pyrimidin-4(3H)-one]"
13,3 nM,"O=c1[nH]ccc2nc(Cc3c(Cl)cccc3Cl)cc(Nc3ccc(N4CCNCC4)c(F)c3)c12 [Example 13, 2-(2,6-dichlorobenzyl)-4-(3-fluoro-4-(piperazin-1-yl)phenylamino)-1,6-naphthyridin-5(6H)-one]"
14,84 nM,"COc1cc(N2CCNCC2)ccc1Nc1nc(Cc2c(Cl)cccc2Cl)nc2cc[nH]c(=O)c12 [Example 14, 2-(2,6-dichlorobenzyl)-4-{[2-methoxy-4-(piperazin-1-yl)phenyl]amino}pyrido[4,3-d]pyrimidin-5(6H)-one]"
15,1450 nM,"O=c1[nH]ccc2nc(Cc3c(Cl)cccc3Cl)nc(Nc3ccc(N4CCNCC4)cc3)c12 [Example 15, 2-(2,6-dichlorobenzyl)-4-{[4-(piperazin-1-yl)phenyl]amino}pyrido[4,3-d]pyrimidin-5(6H)-one]"
16,480 nM,"O=c1[nH]ccc2cc(Cc3c(F)cccc3Cl)nc(Nc3ccc(N4CCNCC4)cc3)c12 [Example 16, 6-(2-chloro-6-fluorobenzyl)-8-{[4-(piperazin-1-yl)phenyl]amino}-2,7-naphthyridin-1(2H)-one]"

row,Ki,Compound
1,> 1000 nM,"COc1cc(C(=O)N2CCN(C)CC2)ccc1Nc1nc(Cc2c(Cl)cccc2Cl)cc2cc[nH]c(=O)c12 [Example 17, 6-(2,6-dichlorobenzyl)-8-({2-methoxy-4-[(4-methylpiperazin-1-yl)carbonyl]phenyl}amino)-2,7-naphthyridin-1(2H)-one]"
2,51 nM,"COc1cc(C(=O)NCCCN2CCOCC2)ccc1Nc1cc(Cc2c(Cl)cccc2Cl)nc2cc[nH]c(=O)c12 [Example 18, 4-{[2-(2,6-dichlorobenzyl)-5-oxo-5,6-dihydro-1,6-naphthyridin-4-yl]amino}-3-methoxy-N-[3-(morpholin-4-yl)propyl]benzamide]"
3,25 nM,"COc1cc(C(=O)NCCCN2CCOCC2)ccc1Nc1nc(Cc2c(Cl)cccc2Cl)cc2cc[nH]c(=O)c12 [Example 19, 4-{[3-(2,6-dichlorobenzyl)-8-oxo-7,8-dihydro-2,7-naphthyridin-1-yl]amino}-3-methoxy-N-[3-(morpholin-4-yl)propyl]benzamide]"
4,51 nM,"COc1cc(C(=O)N2CCN(C)CC2)ccc1Nc1cc(Cc2c(Cl)cccc2Cl)nc2cc[nH]c(=O)c12 [Example 20, 2-(2,6-dichlorobenzyl)-4-({2-methoxy-4-[(4-methylpiperazin-1-yl)carbonyl]phenyl}amino)-1,6-naphthyridin-5(6H)-one]"
5,25 nM,"COc1cc(C(=O)NCCN2CCCC2)ccc1Nc1cc(Cc2c(Cl)cccc2Cl)nc2cc[nH]c(=O)c12 [Example 21, 4-{[2-(2,6-dichlorobenzyl)-5-oxo-5,6-dihydro-1,6-naphthyridin-4-yl]amino}-3-methoxy-N-[2-(pyrrolidin-1-yl)ethyl]benzamide]"
6,54 nM,"COc1cc(C(=O)NCCN2CCCC2)ccc1Nc1nc(Cc2c(Cl)cccc2Cl)cc2cc[nH]c(=O)c12 [Example 22, 4-{[3-(2,6-dichlorobenzyl)-8-oxo-7,8-dihydro-2,7-naphthyridin-1-yl]amino}-3-methoxy-N-[2-(pyrrolidin-1-yl)ethyl]benzamide]"
7,12 nM,"COc1cc(C(=O)NCCN(C)C)ccc1Nc1cc(Cc2c(Cl)cccc2Cl)nc2cc[nH]c(=O)c12 [Example 23, 4-{[2-(2,6-dichlorobenzyl)-5-oxo-5,6-dihydro-1,6-naphthyridin-4-yl]amino}-N-[2-(dimethylamino)ethyl]-3-methoxybenzamide]"
8,8 nM,"COc1cc(C(=O)NCCN2CCCCC2)ccc1Nc1cc(Cc2c(Cl)cccc2Cl)nc2cc[nH]c(=O)c12 [Example 24, 4-{[2-(2,6-dichlorobenzyl)-5-oxo-5,6-dihydro-1,6-naphthyridin-4-yl]amino}-3-methoxy-N-[2-(piperidin-1-yl)ethyl]benzamide]"
9,22 nM,"COc1cc(C(=O)NCCN2CCN(C)CC2)ccc1Nc1cc(Cc2c(Cl)cccc2Cl)nc2cc[nH]c(=O)c12 [Example 25, 4-{[2-(2,6-dichlorobenzyl)-5-oxo-5,6-dihydro-1,6-naphthyridin-4-yl]amino}-3-methoxy-N-[2-(4-methylpiperazin-1-yl)ethyl]benzamide]"
10,212 nM,"COc1cc(C(=O)NCCN2CCN(C)CC2)ccc1Nc1nc(Cc2c(Cl)cccc2Cl)cc2cc[nH]c(=O)c12 [Example 26, 4-{[3-(2,6-dichlorobenzyl)-8-oxo-7,8-dihydro-2,7-naphthyridin-1-yl]amino}-3-methoxy-N-[2-(4-methylpiperazin-1-yl)ethyl]benzamide]"
11,17 nM,"COc1cc(C(=O)NCCN2CCCCC2)ccc1Nc1nc(Cc2c(Cl)cccc2Cl)cc2cc[nH]c(=O)c12 [Example 27, 4-{[3-(2,6-dichlorobenzyl)-8-oxo-7,8-dihydro-2,7-naphthyridin-1-yl]amino}-3-methoxy-N-[2-(piperidin-1-yl)ethyl]benzamide]"
12,36 nM,"COc1cc(C(=O)NCCCCN(C)C)ccc1Nc1nc(Cc2c(Cl)cccc2Cl)cc2cc[nH]c(=O)c12 [Example 28, 4-{[3-(2,6-dichlorobenzyl)-8-oxo-7,8-dihydro-2,7-naphthyridin-1-yl]amino}-N-[4-(dimethylamino)butyl]-3-methoxybenzamide]"
13,11 nM,"COc1cc(C(=O)N2CCNCC2)ccc1Nc1cc(Cc2c(Cl)cccc2Cl)nc2cc[nH]c(=O)c12 [Example 29, 2-(2,6-dichlorobenzyl)-4-{[2-methoxy-4-(piperazin-1-ylcarbonyl)phenyl]amino}-1,6-naphthyridin-5(6H)-one]"
14,20 nM,"COc1cc(C(=O)NCCCCN(C)C)ccc1Nc1cc(Cc2c(Cl)cccc2Cl)nc2cc[nH]c(=O)c12 [Example 30, 4-{[2-(2,6-dichlorobenzyl)-5-oxo-5,6-dihydro-1,6-naphthyridin-4-yl]amino}-N-[4-(dimethylamino)butyl]-3-methoxybenzamide]"
15,7 nM,"COc1cc(N2CCNCC2)ccc1Nc1cc(Cc2ccccc2Cl)nc2cc[nH]c(=O)c12 [Example 31, 2-(2-chlorobenzyl)-4-{[2-methoxy-4-(piperazin-1-yl)phenyl]amino}-1,6-naphthyridin-5(6H)-one]"
